From patent US20170190705A1, “Compositions and Methods for Inhibiting BMP” (THE BRIGHAM AND WOMAN'S HOSPITAL, INC., priority 2014, published 2017) come the findings set out here.

What all share (type): biochemical
One assay has as its target PI3-K-α (Homo sapiens, UniProt P42336). Put plainly: Kinome profiling PI3-K-α. As to conditions: read-out: Inhibitory activity PI3-K-α; for inhibition at 0.1 µM: 100 nM. How it is done: (§1) . The kinome-wide selectivity was determined following the methods previously reported by Mohedas et al., ACS Chem Biol 2013, 8, 1291-1302 and Sanvitale et al., PLoS One 2013, 8, e62721.

The next assay deals with MET (Homo sapiens, UniProt P08581). The assay can be described thus: Kinome profiling MET. As to conditions: read-out: Inhibitory activity MET; for inhibition at 0.1 µM: 100 nM. The procedure:
as §1

A further assay addresses PKC-η (Homo sapiens, UniProt P24723). The assay can be described thus: Kinome profiling PKC-η. As to conditions: read-out: Inhibitory activity PKC-η; for inhibition at 0.1 µM: 100 nM. The procedure:
as §1

A further assay concerns the target T1, NEK2 (Homo sapiens, UniProt P51955).
T1 sequence (P51955 1-445): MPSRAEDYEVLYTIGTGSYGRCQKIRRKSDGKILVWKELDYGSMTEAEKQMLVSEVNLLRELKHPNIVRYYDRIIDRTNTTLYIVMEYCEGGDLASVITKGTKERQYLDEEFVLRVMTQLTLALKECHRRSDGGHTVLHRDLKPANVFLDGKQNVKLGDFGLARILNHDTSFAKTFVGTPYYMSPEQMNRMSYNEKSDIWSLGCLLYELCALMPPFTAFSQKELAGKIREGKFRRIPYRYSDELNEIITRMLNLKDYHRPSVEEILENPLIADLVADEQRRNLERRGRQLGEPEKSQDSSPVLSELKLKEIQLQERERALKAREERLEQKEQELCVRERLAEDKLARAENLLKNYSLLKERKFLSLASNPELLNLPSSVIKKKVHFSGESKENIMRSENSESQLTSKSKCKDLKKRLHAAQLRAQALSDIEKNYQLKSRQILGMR
The assay can be described thus: Kinome profiling NEK2. As to conditions: read-out: Inhibitory activity NEK2; for inhibition at 0.1 µM: 100 nM. The procedure:
as §1

For the next assay, the target named is SRMS (Homo sapiens, UniProt Q9H3Y6). Put plainly: Kinome profiling SRMS. As to conditions: read-out: Inhibitory activity SRMS; for inhibition at 0.1 µM: 100 nM. How it is done:
as §1

The target of a further assay is P38α (Homo sapiens, UniProt Q16539). Put plainly: Kinome profiling P38α. As to conditions: read-out: Inhibitory activity P38α; for inhibition at 0.1 µM: 100 nM. The procedure:
as §1

In a further assay the target is CDK1/cyclinB (Homo sapiens, UniProt P06493). Put plainly: Kinome profiling CDK1/cyclinB. As to conditions: read-out: Inhibitory activity CDK1/cyclinB; for inhibition at 0.1 µM: 100 nM. How it is done: as §1
Chain of CDK1/cyclinB (P06493 whole entry): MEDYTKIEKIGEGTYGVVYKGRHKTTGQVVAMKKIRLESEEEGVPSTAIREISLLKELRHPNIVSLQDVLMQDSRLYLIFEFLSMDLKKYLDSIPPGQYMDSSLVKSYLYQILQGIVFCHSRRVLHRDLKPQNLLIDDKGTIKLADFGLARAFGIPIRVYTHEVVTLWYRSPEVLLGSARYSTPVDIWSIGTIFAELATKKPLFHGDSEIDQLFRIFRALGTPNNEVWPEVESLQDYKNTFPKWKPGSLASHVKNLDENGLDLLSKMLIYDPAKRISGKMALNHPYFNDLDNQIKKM
Chain of CDK1/cyclinB (P14635 whole entry partner): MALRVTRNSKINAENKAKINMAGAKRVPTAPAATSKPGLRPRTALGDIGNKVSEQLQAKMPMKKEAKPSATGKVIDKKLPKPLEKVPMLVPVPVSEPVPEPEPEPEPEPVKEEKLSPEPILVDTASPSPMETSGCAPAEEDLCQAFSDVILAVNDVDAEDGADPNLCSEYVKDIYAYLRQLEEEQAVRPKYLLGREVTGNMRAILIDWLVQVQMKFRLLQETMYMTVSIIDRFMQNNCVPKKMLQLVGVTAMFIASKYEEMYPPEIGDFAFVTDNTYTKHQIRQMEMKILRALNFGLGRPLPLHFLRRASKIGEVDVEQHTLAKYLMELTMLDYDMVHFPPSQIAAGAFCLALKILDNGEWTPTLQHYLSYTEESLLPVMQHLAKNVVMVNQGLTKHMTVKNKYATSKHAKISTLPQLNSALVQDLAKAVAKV
For another assay, the target named is TNK2 (Homo sapiens, UniProt Q07912). Put plainly: Kinome profiling TNK2. As to conditions: read-out: Inhibitory activity TNK2; for inhibition at 0.1 µM: 100 nM. How it is done: as §1
Another assay addresses PAR-1Bα (Homo sapiens, UniProt Q7KZI7). Put plainly: Kinome profiling PAR-1Bα. As to conditions: read-out: Inhibitory activity PAR-1Bα; for inhibition at 0.1 µM: 100 nM. How it is done:
as §1

In another assay the target is T2, IRAK4 (Homo sapiens, UniProt Q9NWZ3).
T2 sequence (Q9NWZ3 1-460): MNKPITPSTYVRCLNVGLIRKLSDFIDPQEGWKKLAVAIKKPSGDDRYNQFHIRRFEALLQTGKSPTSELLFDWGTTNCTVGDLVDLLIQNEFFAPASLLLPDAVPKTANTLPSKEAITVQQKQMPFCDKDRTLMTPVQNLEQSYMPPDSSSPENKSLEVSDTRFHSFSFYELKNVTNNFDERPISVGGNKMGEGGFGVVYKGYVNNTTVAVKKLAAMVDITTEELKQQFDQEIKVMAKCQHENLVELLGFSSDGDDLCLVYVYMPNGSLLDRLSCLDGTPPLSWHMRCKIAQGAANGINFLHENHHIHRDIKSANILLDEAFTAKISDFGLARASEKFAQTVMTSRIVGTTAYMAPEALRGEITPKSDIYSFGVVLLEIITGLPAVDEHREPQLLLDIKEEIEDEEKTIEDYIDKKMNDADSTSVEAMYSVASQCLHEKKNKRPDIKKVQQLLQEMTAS
Put plainly: Kinome profiling IRAK4. As to conditions: read-out: Inhibitory activity IRAK4; for inhibition at 0.1 µM: 100 nM. The procedure:
as §1

The target in a further assay is FGFR1 (Homo sapiens, UniProt P11362). The assay can be described thus: Kinome profiling FGFR1. As to conditions: read-out: Inhibitory activity FGFR1; for inhibition at 0.1 µM: 100 nM. How it is done: as §1
Chain of FGFR1 (P11362 22-822): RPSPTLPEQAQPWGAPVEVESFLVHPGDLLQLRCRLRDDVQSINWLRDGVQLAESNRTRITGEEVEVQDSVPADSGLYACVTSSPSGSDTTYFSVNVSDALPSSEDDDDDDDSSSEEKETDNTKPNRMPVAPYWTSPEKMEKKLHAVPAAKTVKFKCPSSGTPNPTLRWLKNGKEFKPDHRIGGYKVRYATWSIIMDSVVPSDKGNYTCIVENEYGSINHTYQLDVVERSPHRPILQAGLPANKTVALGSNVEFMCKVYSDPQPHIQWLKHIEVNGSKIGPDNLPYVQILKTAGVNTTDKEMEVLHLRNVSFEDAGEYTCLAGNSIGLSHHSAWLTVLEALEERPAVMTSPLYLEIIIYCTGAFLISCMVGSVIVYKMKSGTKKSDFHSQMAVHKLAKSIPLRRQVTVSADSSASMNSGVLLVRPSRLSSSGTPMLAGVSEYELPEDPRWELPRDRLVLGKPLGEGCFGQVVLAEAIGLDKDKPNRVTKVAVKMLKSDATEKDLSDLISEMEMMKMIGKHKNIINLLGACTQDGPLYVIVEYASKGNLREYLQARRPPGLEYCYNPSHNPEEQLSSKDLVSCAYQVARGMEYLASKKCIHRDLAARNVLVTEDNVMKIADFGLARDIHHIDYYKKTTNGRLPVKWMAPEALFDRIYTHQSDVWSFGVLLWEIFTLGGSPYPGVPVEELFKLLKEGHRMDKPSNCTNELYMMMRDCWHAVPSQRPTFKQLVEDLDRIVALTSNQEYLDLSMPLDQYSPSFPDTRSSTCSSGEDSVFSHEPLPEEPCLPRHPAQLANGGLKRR
The next assay concerns the target T3, PRKD3 (Homo sapiens, UniProt O94806).
T3 sequence (O94806 1-890): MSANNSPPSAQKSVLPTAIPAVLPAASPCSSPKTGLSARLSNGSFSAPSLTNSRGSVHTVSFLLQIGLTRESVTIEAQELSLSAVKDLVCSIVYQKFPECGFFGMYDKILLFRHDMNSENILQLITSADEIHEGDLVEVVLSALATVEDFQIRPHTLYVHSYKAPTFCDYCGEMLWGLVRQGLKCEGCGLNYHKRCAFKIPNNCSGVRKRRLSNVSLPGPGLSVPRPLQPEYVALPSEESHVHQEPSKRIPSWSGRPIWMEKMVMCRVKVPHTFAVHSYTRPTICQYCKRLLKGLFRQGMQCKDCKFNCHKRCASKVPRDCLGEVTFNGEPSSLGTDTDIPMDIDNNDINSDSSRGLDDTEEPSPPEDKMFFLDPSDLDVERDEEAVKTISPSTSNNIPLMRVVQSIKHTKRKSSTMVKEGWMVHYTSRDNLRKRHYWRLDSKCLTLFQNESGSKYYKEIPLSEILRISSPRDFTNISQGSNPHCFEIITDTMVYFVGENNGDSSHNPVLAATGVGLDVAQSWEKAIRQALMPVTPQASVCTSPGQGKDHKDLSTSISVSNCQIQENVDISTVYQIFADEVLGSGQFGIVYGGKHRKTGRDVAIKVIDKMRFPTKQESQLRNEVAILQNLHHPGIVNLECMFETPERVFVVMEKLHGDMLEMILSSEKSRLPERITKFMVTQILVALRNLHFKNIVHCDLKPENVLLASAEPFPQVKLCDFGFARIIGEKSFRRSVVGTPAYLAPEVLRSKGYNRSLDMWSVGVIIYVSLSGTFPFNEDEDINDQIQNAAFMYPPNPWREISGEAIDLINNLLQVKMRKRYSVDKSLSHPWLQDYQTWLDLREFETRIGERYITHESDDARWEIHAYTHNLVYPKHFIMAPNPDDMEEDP
The assay can be described thus: Kinome profiling PRKD3. As to conditions: read-out: Inhibitory activity PRKD3; for inhibition at 0.1 µM: 100 nM. The procedure:
as §1

Chain of SRMS (Q9H3Y6 whole entry): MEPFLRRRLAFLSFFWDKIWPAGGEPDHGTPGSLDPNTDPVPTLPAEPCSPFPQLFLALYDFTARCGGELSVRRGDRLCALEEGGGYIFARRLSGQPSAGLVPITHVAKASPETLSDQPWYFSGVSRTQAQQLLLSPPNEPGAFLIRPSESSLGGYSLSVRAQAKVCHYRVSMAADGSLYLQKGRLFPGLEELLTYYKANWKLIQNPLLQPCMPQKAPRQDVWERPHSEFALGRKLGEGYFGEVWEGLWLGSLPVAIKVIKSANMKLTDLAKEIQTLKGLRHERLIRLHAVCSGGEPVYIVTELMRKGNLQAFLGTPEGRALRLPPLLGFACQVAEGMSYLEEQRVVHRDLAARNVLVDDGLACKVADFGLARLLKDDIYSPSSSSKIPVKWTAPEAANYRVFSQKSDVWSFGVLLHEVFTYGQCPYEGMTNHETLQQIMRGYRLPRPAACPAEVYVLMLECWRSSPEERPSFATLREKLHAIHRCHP
Chain of MET (P08581 25-1390): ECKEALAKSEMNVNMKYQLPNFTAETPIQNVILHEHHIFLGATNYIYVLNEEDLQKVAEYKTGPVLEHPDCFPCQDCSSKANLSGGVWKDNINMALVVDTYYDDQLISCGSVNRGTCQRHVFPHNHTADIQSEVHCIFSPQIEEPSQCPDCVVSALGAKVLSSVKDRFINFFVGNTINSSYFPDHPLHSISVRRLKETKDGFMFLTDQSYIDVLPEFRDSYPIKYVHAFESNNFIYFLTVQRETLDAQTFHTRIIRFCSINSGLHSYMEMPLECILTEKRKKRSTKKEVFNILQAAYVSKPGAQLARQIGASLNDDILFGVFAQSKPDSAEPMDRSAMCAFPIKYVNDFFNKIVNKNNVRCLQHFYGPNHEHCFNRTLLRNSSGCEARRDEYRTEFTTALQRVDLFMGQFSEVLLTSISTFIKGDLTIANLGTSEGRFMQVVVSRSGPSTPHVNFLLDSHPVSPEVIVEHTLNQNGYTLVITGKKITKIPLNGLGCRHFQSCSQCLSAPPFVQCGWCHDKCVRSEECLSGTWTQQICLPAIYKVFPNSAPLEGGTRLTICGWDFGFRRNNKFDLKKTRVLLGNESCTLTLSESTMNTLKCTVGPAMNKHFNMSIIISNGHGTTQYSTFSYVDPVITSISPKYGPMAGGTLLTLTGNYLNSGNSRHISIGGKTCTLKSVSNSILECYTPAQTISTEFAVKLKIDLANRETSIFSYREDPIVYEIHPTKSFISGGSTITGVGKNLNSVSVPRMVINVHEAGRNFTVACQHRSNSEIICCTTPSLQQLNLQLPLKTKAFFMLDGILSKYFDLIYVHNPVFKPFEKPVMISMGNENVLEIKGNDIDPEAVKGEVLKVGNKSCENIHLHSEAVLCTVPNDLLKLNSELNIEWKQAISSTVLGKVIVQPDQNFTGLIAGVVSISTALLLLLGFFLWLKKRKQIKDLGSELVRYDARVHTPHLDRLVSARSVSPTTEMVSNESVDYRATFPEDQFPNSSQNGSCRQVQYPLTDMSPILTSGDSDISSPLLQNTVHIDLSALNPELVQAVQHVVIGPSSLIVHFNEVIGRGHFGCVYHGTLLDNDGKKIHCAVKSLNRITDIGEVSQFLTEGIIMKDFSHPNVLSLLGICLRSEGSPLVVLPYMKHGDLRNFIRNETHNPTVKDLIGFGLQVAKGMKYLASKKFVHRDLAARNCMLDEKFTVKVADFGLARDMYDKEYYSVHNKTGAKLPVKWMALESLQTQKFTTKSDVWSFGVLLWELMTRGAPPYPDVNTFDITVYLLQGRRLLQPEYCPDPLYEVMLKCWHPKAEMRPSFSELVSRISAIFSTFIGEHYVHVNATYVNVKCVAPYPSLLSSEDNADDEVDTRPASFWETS
Chain of PAR-1Bα (Q7KZI7 1-725 isoform Q7KZI7-4): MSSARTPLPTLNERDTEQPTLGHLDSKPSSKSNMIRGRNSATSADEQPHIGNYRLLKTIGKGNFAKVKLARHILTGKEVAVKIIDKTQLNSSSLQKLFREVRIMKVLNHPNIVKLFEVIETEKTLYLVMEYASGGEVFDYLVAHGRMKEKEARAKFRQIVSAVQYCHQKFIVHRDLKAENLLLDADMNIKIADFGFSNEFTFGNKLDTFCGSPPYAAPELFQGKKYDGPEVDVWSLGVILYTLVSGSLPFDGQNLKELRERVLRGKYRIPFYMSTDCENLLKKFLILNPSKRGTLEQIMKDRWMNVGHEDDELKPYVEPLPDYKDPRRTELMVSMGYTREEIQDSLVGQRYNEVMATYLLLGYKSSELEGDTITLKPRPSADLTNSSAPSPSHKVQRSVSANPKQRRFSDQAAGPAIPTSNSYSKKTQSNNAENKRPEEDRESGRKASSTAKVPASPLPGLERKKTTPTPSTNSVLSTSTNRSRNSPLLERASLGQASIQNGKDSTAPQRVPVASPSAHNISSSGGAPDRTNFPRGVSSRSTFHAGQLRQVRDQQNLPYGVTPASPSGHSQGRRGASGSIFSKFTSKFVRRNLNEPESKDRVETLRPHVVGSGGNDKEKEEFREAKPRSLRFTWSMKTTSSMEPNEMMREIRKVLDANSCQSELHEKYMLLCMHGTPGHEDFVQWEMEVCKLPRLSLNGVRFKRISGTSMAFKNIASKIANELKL
Chain of PKC-η (P24723 whole entry): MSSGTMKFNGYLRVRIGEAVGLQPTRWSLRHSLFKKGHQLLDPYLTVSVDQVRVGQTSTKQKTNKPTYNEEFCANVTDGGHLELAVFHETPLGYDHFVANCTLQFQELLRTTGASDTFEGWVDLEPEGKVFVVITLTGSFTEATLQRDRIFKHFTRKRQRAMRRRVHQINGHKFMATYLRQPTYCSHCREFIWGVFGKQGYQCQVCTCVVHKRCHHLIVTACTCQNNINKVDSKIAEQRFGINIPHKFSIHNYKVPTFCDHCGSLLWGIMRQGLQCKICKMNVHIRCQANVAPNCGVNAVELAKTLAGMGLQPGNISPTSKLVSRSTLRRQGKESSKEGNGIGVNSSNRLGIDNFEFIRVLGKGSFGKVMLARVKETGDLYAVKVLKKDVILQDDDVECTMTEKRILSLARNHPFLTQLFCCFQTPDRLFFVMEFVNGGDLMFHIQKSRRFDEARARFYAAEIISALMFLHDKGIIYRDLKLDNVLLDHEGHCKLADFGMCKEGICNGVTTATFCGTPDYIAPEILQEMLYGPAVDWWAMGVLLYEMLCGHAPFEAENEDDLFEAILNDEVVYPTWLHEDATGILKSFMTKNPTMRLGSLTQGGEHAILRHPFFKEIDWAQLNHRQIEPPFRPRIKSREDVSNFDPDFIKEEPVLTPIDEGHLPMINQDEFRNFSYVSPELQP

With `COc1cc(-c2cc(-c3ccc(N4CCNCC4)cc3)cnc2N)cc(OC)c1OC` [Compound 15, 5-(4-(piperazin-1-yl)phenyl)-3-(3,4,5-trimethoxyphenyl)pyridin-2-amine], the inhibition at 0.1 µM was 4% on PI3-K-α; 7% on MET; 3% at PKC-η; 4% on NEK2; 11% on SRMS; 4% at P38α. The inhibition at 0.1 µM was -1% on CDK1/cyclinB; 6% on TNK2; 1% at PAR-1Bα; 1% on IRAK4; 3% on FGFR1; 7% on PRKD3. Also, the inhibition at 1 µM on PI3-K-α is 4%; at MET, 21%; at PKC-η, -1%; on NEK2, 2%; on SRMS, 33%; at P38α it was 9%. The inhibition at 1 µM at CDK1/cyclinB stood at 0%; on TNK2, 44%; at PAR-1Bα, 19%; at IRAK4, 2%; on FGFR1 it was 8%; at PRKD3, 38%.
As to `COc1cc(-c2cc(-c3ccc(N4CCNCC4)cc3)cnc2C)cc(OC)c1OC` [Compound 10, 1-(4-(6-methyl-5-(3,4,5-trimethoxyphenyl)pyridin-3-yl)phenyl)piperazine], the inhibition at 0.1 µM at PI3-K-α is 5%; on MET, -1%; on PKC-η, 5%; at NEK2, 3%; on SRMS, 0%; on P38α, -2%. In addition, the inhibition at 0.1 µM on CDK1/cyclinB turned out to be 2%; on TNK2, 6%; on PAR-1Bα, 2%; on IRAK4, 0%; at FGFR1, 5%; at PRKD3, 2%. Besides, the inhibition at 1 µM at PI3-K-α amounted to 7%; at MET, 2%; on PKC-η, 18%; at NEK2, 2%; at SRMS it was 1%; at P38α it was 1%. The inhibition at 1 µM amounted to 3% on CDK1/cyclinB; 35% at TNK2; 4% on PAR-1Bα; 1% on IRAK4; 5% on FGFR1; 21% on PRKD3.
